ChEMBL document CHEMBL1201862, “PubChem BioAssay data set” (2004)
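Step 1: Grow cells in 96-well plates. Step 2: Expose to compound for 48 hours at 5 concentrations. Step 3: Interpolate endpoints linearly; if unreached, use highest concentration. GI50 marks 50% less growth.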 Active and inactive are the calls of the source. No stated cut-off is given here; in the data, active = GI50 up to about 1.1 µM and inactive = higher.

Key:
Test in all cases: growth of human tumour cells (NCI), 48 h
CCRF-CEM = tested on: CCRF-CEM
HCT-116 = tested on: HCT-116
HCT-15 = tested on: HCT-15
HOP-92 = tested on: HOP-92
IGROV-1 = tested on: IGROV-1
KM12 = tested on: KM12
MDA-MB-435 = tested on: MDA-MB-435
NCI-H23 = tested on: NCI-H23
NCI-H522 = tested on: NCI-H522
PC-3 = tested on: PC-3
RXF 393 = tested on: RXF 393
SF-268 = tested on: SF-268
SF-539 = tested on: SF-539
SK-MEL-5 = tested on: SK-MEL-5
SK-OV-3 = tested on: SK-OV-3
SNB-75 = tested on: SNB-75
TK-10 = tested on: TK-10
MDA-N = tested on: MDA-N
Malme-3M = tested on: Malme-3M
T47D = tested on: T47D

Compound | GI50 (CCRF-CEM) | GI50 (HCT-116) | GI50 (HCT-15) [µM] | GI50 (HOP-92) | GI50 (IGROV-1) | GI50 (KM12) | GI50 (MDA-MB-435) | GI50 (NCI-H23) | GI50 (NCI-H522) | GI50 (PC-3) | GI50 (RXF 393) | GI50 (SF-268) | GI50 (SF-539) | GI50 (SK-MEL-5) | GI50 (SK-OV-3) | GI50 (SNB-75) | GI50 (TK-10) | GI50 (MDA-N) | GI50 (Malme-3M) | GI50 (T47D)
COc1cccc(/C=C2/Sc3scc(-c4ccccc4)[n+]3C2=O)c1O | 4.9 µM (inactive) | 14.9 µM (inactive) | 13.6 | 15.3 µM (inactive) | 15.2 µM (inactive) | 18.6 µM (inactive) | 8.65 µM (inactive) | 17.3 µM (inactive) | 18.8 µM (inactive) | 32.1 µM (inactive) | 14.4 µM (inactive) | 41.2 µM (inactive) | 16.1 µM (inactive) | 14.4 µM (inactive) | 22.3 µM (inactive) | 28.6 µM (inactive) | 31 µM (inactive) |  |  | 
O=C1c2ccccc2-c2nc3ccc(O)cc3n21 | > 100 µM (inactive) | > 100 µM (inactive) | > 100 | > 100 µM (inactive) | > 100 µM (inactive) | > 100 µM (inactive) |  | > 100 µM (inactive) | > 100 µM (inactive) | > 100 µM (inactive) | > 100 µM (inactive) | > 100 µM (inactive) | > 100 µM (inactive) | > 100 µM (inactive) | > 100 µM (inactive) | 34.1 µM (inactive) | > 100 µM (inactive) | > 100 µM (inactive) | > 100 µM (inactive) | 
CC(=O)OCc1nc(C#N)c(N)o1 | > 100 µM (inactive) | > 100 µM (inactive) | > 100 | > 100 µM (inactive) | > 100 µM (inactive) | > 100 µM (inactive) | > 100 µM (inactive) | > 100 µM (inactive) | > 100 µM (inactive) | > 100 µM (inactive) | > 100 µM (inactive) | > 100 µM (inactive) |  | > 100 µM (inactive) | > 100 µM (inactive) |  | > 100 µM (inactive) | > 100 µM (inactive) | > 100 µM (inactive) | 
O=C(Cc1ccccc1)c1ccc2[nH]c(=O)oc2c1 | > 100 µM (inactive) | 43.8 µM (inactive) | 58.9 |  | 9.53 µM (inactive) | 19 µM (inactive) | 33.7 µM (inactive) | 51.3 µM (inactive) |  | 41.3 µM (inactive) | 39.6 µM (inactive) | 16.5 µM (inactive) | 32.2 µM (inactive) |  | 76.2 µM (inactive) | 0.126 µM (active) | 97.3 µM (inactive) | 39.3 µM (inactive) |  | 
CCOC(=O)N/N=C(\Cc1ccccc1)OCC | > 100 µM (inactive) | > 100 µM (inactive) | > 100 | > 100 µM (inactive) | > 100 µM (inactive) | > 100 µM (inactive) | > 100 µM (inactive) | > 100 µM (inactive) | > 100 µM (inactive) | > 100 µM (inactive) | > 100 µM (inactive) | > 100 µM (inactive) | > 100 µM (inactive) | > 100 µM (inactive) | > 100 µM (inactive) | > 100 µM (inactive) | > 100 µM (inactive) | > 100 µM (inactive) |  | 
CC1(C)CC(=O)C(=CNC(=O)c2ccncc2)C(=O)C1 | > 100 µM (inactive) | > 100 µM (inactive) | > 100 | > 100 µM (inactive) | > 100 µM (inactive) | > 100 µM (inactive) | > 100 µM (inactive) | > 100 µM (inactive) | > 100 µM (inactive) | > 100 µM (inactive) | > 100 µM (inactive) | > 100 µM (inactive) | > 100 µM (inactive) | > 100 µM (inactive) | > 100 µM (inactive) | > 100 µM (inactive) | > 100 µM (inactive) | > 100 µM (inactive) |  | 
COc1cc([C@@H]2OC[C@@H]3C(c4cc(OC)c5c(c4)OCO5)OC[C@@H]32)cc(OC)c1OC (some centres undefined) | 52.4 µM (inactive) | > 100 µM (inactive) | 43.3 | > 100 µM (inactive) | > 100 µM (inactive) | > 100 µM (inactive) | > 100 µM (inactive) | > 100 µM (inactive) | 96.8 µM (inactive) | 50.1 µM (inactive) |  | > 100 µM (inactive) | > 100 µM (inactive) | 26.9 µM (inactive) | > 100 µM (inactive) | > 100 µM (inactive) | > 100 µM (inactive) |  |  | 46.1 µM (inactive)
O=C(/C=C/c1csc(-c2ccccc2)n1)NCc1ccc(C(=O)NCc2ccccc2)cc1 | > 100 µM (inactive) | > 100 µM (inactive) | > 100 | 24.4 µM (inactive) | 37.2 µM (inactive) | > 100 µM (inactive) | > 100 µM (inactive) | > 100 µM (inactive) | 64.7 µM (inactive) | > 100 µM (inactive) | 61 µM (inactive) | 35.3 µM (inactive) | 32.3 µM (inactive) | > 100 µM (inactive) | > 100 µM (inactive) | 19.2 µM (inactive) | 31.9 µM (inactive) |  | 92 µM (inactive) | > 100 µM (inactive)
CC(C)(C)OC(=O)NC(Cc1ccc(O)cn1)C(N)=O (centres undefined) | > 10 µM (inactive) | > 100 µM (inactive) | > 100 | > 100 µM (inactive) | > 100 µM (inactive) | > 100 µM (inactive) | > 100 µM (inactive) | > 100 µM (inactive) | > 100 µM (inactive) | > 100 µM (inactive) | > 100 µM (inactive) | > 100 µM (inactive) | > 100 µM (inactive) | > 100 µM (inactive) |  | > 100 µM (inactive) | > 100 µM (inactive) | > 100 µM (inactive) | > 100 µM (inactive) | 
CC(=O)N/N=C1\CC(C)(C)C2CCC1C2 (centres undefined) | > 100 µM (inactive) | > 100 µM (inactive) | > 100 | > 100 µM (inactive) | > 100 µM (inactive) | > 100 µM (inactive) |  | > 100 µM (inactive) | > 100 µM (inactive) |  | > 100 µM (inactive) | > 100 µM (inactive) | > 100 µM (inactive) | > 100 µM (inactive) | > 100 µM (inactive) | > 100 µM (inactive) | > 100 µM (inactive) |  | > 100 µM (inactive) | 
CC(=O)Oc1cc(OC(C)=O)c2c(C)cc(=O)oc2c1 | > 100 µM (inactive) | > 100 µM (inactive) | > 100 |  | 95.7 µM (inactive) | > 100 µM (inactive) | > 100 µM (inactive) | > 100 µM (inactive) |  | > 100 µM (inactive) |  | > 100 µM (inactive) | 36.1 µM (inactive) | > 100 µM (inactive) | > 100 µM (inactive) | 66.8 µM (inactive) | 97.7 µM (inactive) | > 100 µM (inactive) | > 100 µM (inactive) | 
COC(=O)C1=C(CCC[C@H](C)O[Si](C)(C)C(C)(C)C)NC(=O)N2[C@@H](CCO)CC[C@H]12 |  | 4.18 µM (inactive) | 15 | 14.2 µM (inactive) | 15.8 µM (inactive) | 18.3 µM (inactive) | 17.7 µM (inactive) | 13.2 µM (inactive) | 5.71 µM (inactive) |  | 12.4 µM (inactive) | 14.6 µM (inactive) | 16.7 µM (inactive) | 7.82 µM (inactive) | 15.8 µM (inactive) | 15.7 µM (inactive) | 18.6 µM (inactive) |  | 12.5 µM (inactive) | 11.6 µM (inactive)
CCOC(=O)/C=C(\C)Sc1cc(O)c2ccccc2c1O | 6.64 µM (inactive) | 6.47 µM (inactive) | 17.4 | 21.2 µM (inactive) | 12 µM (inactive) | 28.6 µM (inactive) | 2.65 µM (inactive) | 30.4 µM (inactive) | 10.1 µM (inactive) | 26.4 µM (inactive) | 14.9 µM (inactive) | 11 µM (inactive) | 21.5 µM (inactive) | 12.6 µM (inactive) | 34.4 µM (inactive) | 10.1 µM (inactive) | 23.7 µM (inactive) |  | 9.66 µM (inactive) | 2.94 µM (inactive)
C[Si](C)(C)c1ccc(CC2(Cc3ccc([Si](C)(C)C)cc3)CCNC2)cc1 | 4.67 µM (inactive) | 1.69 µM (inactive) | 2.16 | 1.74 µM (inactive) | 2.58 µM (inactive) | 1.99 µM (inactive) |  | 1.97 µM (inactive) | 1.78 µM (inactive) |  | 1.71 µM (inactive) | 2.22 µM (inactive) | 3.34 µM (inactive) | 1.9 µM (inactive) | 1.63 µM (inactive) | 3.24 µM (inactive) | 21 µM (inactive) |  | 3.95 µM (inactive) | 
O=C1C(Cl)C(c2ccc(O)cc2)N1n1cnc2ccccc2c1=O (centres undefined) | 26.3 µM (inactive) | 17.1 µM (inactive) | 27.4 | 38.2 µM (inactive) | > 57.5 µM (inactive) | 51.1 µM (inactive) |  | 31 µM (inactive) | 16.6 µM (inactive) |  | 19 µM (inactive) | 45.6 µM (inactive) | 31.9 µM (inactive) | 52.8 µM (inactive) | > 100 µM (inactive) | 49 µM (inactive) | 40.6 µM (inactive) |  | 37.2 µM (inactive) | 
CC(C)(C)OC(=O)CN1CCNCCN(CC(=O)OC(C)(C)C)CCNCC1 | 57 µM (inactive) | 26.2 µM (inactive) | > 100 | > 100 µM (inactive) | > 100 µM (inactive) | 98.9 µM (inactive) | 98.9 µM (inactive) |  | > 100 µM (inactive) | > 100 µM (inactive) | > 100 µM (inactive) |  | > 100 µM (inactive) | 50.6 µM (inactive) | > 100 µM (inactive) | > 100 µM (inactive) | > 100 µM (inactive) | 65.6 µM (inactive) |  | 
O=[N+]([O-])c1ccc(C2CC(c3ccc(NCc4nc5ccccc5[nH]4)cc3)=NO2)cc1 (centres undefined) | 15.6 µM (inactive) | 27.4 µM (inactive) | 30.7 | > 100 µM (inactive) | 75.7 µM (inactive) | 21.1 µM (inactive) |  | 34.6 µM (inactive) | 27.9 µM (inactive) |  | > 100 µM (inactive) | > 100 µM (inactive) | > 100 µM (inactive) | 9.04 µM (inactive) | > 100 µM (inactive) | > 100 µM (inactive) | 89.3 µM (inactive) |  | 34.4 µM (inactive) | 
